These results are taken from patent US11717554B2, “Method for preventing or treating hangover symptom(s) associated with consumption of alcoholic beverage(s)” (MAX R&D LLC, priority 2019, dated 2023).

Like-named read-outs stand apart in the source and are kept apart here.

For one data set, the system named is acetaldehyde. In words: MTCG in urine of rats treated with ethanol, disulfiram and CG or CbG. Conditions: for oral bioavailability (in words): inferred from urinary MTCG excretion. On the procedure: In the first study, rats were administered disulfiram, an ALDH inhibitor and alcohol deterrent drug used to inhibit the metabolism of ethanol at the acetaldehyde stage, thus producing an adverse reaction that discourages further alcohol drinking (reviewed in Wikipedia, 2017). Treatment of rats with disulfiram causes a buildup of acetaldehyde in blood (Nagasawa et al, 1978). The rats were then administered CbG, orally, to determine whether CbG, following its in vivo conversion to CG, can sequester the acetaldehyde produced in the disulfiram-treated rats to a product that is excreted into the urine. Note that CbG in vivo may be reduced 2 CG. The product expected from this sequestration reaction is MTCG (vide supra). The MTCG in rat urine, collected over 24 hours following the ethanol dose, was quantitatively analyzed by LC/MS.

The subject of the next data set is isoamyl aldehyde. Conditions: for BTCG excreted in urine: LC/MS. An excerpt: In the second study, isoamyl alcohol replaced ethanol, and cyanamide, another clinically-used ALDH inhibitor (Tottmar et al., 1977), replaced disulfiram to block the further metabolism of isoamyl aldehyde derived from isoamyl alcohol (FIG. 3). Isoamyl alcohol is the most abundant small, branched-chain alcohol congener present in bourbon (Damrau and Liddy, 1960). […] The excreted product in urine here would be 2-isoobutylthiazolidine-4-carbonylglycine, viz., BTCG (FIG. 1). The urines were analyzed for BTCG by LC/MS as above.

Data set [1] in a line: Urinary excretion and metabolic fate of MTCA in rats. The data set is classed as in vivo. The source says: We examined cysteine (the natural “L’ form), a semi-essential sulfhydryl amino acid, as a sequestering agent for acetaldehyde (Nagasawa et al., 1975). Indeed, cysteine readily condensed with acetaldehyde in aqueous solution to form a cyclic product, 2-methylthiazolidine-4 carboxylic acid (MTCA). […] We, therefore, prepared and administered radio-labeled MTCA (^14C at the 2-position) to a rat to follow its metabolic course (Nagasawa et al., 1984).

Data set [2] in a line: Stability of MTCG in 0.1 N HCl. The class given is physicochemical. The source says:
Although identified in urine, the long-term stability of MTCG in urine is still a question. MTCG is found to be stable in 0.1 N HCl, so we plan to collect the rat urine in acidified containers on ice. Presence of MTCG will be determined using a HPLC/MS method to obtain quantitative data of MTCG in rat urine.

The conditions of data set [3]: rat biological fluids; cited from earlier work.

As for `N[C@@H](CS)C(=O)NCC(=O)O` [CG, cysteinylglycine], the “urinary MTCG excretion, CG group (Group A) compared with disulfiram and ethanol only (Group C)” value in the data set with acetaldehyde (rats, disulfiram and ethanol, 24 hour urine) is given as “not statistically significant”. Also, the “oral bioavailability (in words)” value in the data set on acetaldehyde (rats) is reported as “poor oral bioavailability”.

Regarding `NC(CSSCC(N)C(=O)NCC(=O)O)C(=O)NCC(=O)O` (centres unmarked) [CbG, cystinyl-bis-glycine], the “BTCG excreted in urine” value is given as “excreted BTCG in the urine, albeit minimally” in the data set on isoamyl aldehyde (Group A: cyanamide, isoamyl alcohol and CbG); “no BTCG could be detected in urine” with isoamyl aldehyde (Group C: isoamyl alcohol and CbG, no cyanamide). Further, the condition of animals entry in the data set on isoamyl aldehyde (Group A: rats receiving cyanamide, isoamyl alcohol and CbG, group without CbG was comatose (3 of 7) with one death) is on record as “normal although hypoactive”; in the data set with isoamyl aldehyde (Group C: rats receiving isoamyl alcohol and CbG, no cyanamide), “normal but more active”. The “urinary excretion of BTCG compared to MTCG of the first study” value in the data set with isoamyl aldehyde (cyanamide, CbG, isoamyl alcohol vs disulfiram, CbG, ethanol (nanograms of BTCG vs. micrograms of MTCG)) is on record as “more than 3 orders of magnitude lower”. Also, the “urinary excretion of MTCG relative to CG administration” value with acetaldehyde (rats given disulfiram and ethanol, oral CbG (Group B) vs CG (Group A), urine collected over 24 hours, LC/MS) is 4.25 times greater. The “oral bioavailability (in words)” value with acetaldehyde (rats) was “more orally bioavailable than CG”.

`N[C@@H](CS)C(=O)O` [L-cysteine]: the “MTCA in urine after ethanol and L-cysteine” value in data set [1] (rats administered ethanol and L-cysteine) is listed as “could not find MTCA in the urine”.

Consider `CC1NC(C(=O)O)CS1` (centres unmarked) [MTCA, 2-methylthiazolidine-4 carboxylic acid], for which the “metabolic fate of radiolabel” value in data set [1] (rat, in vivo) is recorded as “most of the radiolabel appeared as expired ^14CO2”. Further, the “MTCA in urine after administration of MTCA” value in data set [1] (rats, MTCA 400 mg/kg) is “no MTCA in the urine”.

With `CC1NC(C(=O)NCC(=O)O)CS1` (centres unmarked) [MTCG, 2-methylthiazolidine-4-carbonylglycine], in data set [2], the “stability in 0.1 N HCl” value is “stable”. In addition, the “stability in biological fluids of rats, including urine” value in data set [3] was “stable”.
